Assays:
PA-PB1 endonuclease [1] = test system: PA-PB1 endonuclease; set-up: method as in supplement 1-7; details: training and test set compounds collected from literature; ref supplement 1-7; read-out: IC50 value Experimental (PA-PB1 endonuclease inhibitors); cited from earlier work
PA-PB1 endonuclease [2] = experiment: Experimental PA-PB1 inhibitory activity of literature inhibitors (training and test set); assay type: biochemical, influenza virus; details: class of the experimental IC50

Structure (SMILES)	IC50 (PA-PB1 endonuclease [1]) [µM]	Activity scale Experimental (PA-PB1 endonuclease [2])
Cc1cc(-c2ccccc2)nc2nc(NC(=O)c3ccccc3)nn12 [Compound H20]	26	+++ (+++, IC50 10 to 100 μM (active))
CCCOc1ccc(C(=O)Nc2nc3n(n2)C(c2ccccc2)C=C(C)N3)cc1 (stereo not drawn) [Compound H21]	40	+++ (+++, IC50 10 to 100 μM (active))
CC1=CC(c2ccccc2)n2nc(NC(=O)c3ccc(OC(C)C)cc3)nc2N1 (stereo not drawn) [Compound H22]	75	+++ (+++, IC50 10 to 100 μM (active))
CCOc1ccc(C(=O)Nc2nc3n(n2)C(c2ccccc2)C=C(C)N3)cc1 (stereo not drawn) [Compound H23]	139	++ (++, IC50 100 to 150 μM (moderately active))
CC1=CC(c2ccccc2)n2nc(NC(=O)c3ccccc3F)nc2N1 (stereo not drawn) [Compound H25]	185	+ (+, IC50 >150 μM (inactive))
CC1=CC(c2ccccc2)n2nc(NC(=O)c3cccc(F)c3)nc2N1 (stereo not drawn) [Compound H26]	156	+ (+, IC50 >150 μM (inactive))
CC1=CC(c2ccccc2)n2nc(NC(=O)c3ccc(F)cc3)nc2N1 (stereo not drawn) [Compound H27]	138	++ (++, IC50 100 to 150 μM (moderately active))
CC(c1ccccc1)n1nnnc1C(c1ccsc1)N1CCC(n2c(=O)[nH]c3ccccc32)CC1 (stereo not drawn) [Compound H28]	7.6	++++ (++++, IC50 ≤ 10 μM (most active))
CCOC(=O)c1ccc(NC(=O)CSc2nc(-c3ccccc3)cc(-c3ccc(OCc4ccccc4)c(OCC)c3)c2C#N)cc1 [Compound H30]	30	+++ (+++, IC50 10 to 100 μM (active))
NC(=O)c1c(NC(=O)c2cnn3c(C(F)F)cc(-c4ccccc4)nc23)sc2c1CCC2 [Compound H32]	25.4	+++ (+++, IC50 10 to 100 μM (active))
O=C(Nc1sc2c(c1C(=O)Nc1nccs1)CCCCC2)c1ccccc1O [Compound H33]	69	+++ (+++, IC50 10 to 100 μM (active))
COc1ccccc1C(=O)Nc1sc2c(c1C(=O)Nc1ccc(Cl)cc1)CCCCC2 [Compound H34]	78	+++ (+++, IC50 10 to 100 μM (active))
Cc1ccc(-c2cc(-c3ccccc3)nc(SCC(=O)Nc3cccc(Cl)c3)c2C#N)cc1 [Compound H35]	180	+ (+, IC50 >150 μM (inactive))
Cc1ccc(-c2cc(-c3ccccc3)nc(SC(C)C(=O)Nc3cccc(Cl)c3)c2C#N)cc1 (stereo not drawn) [Compound H36]	125	++ (++, IC50 100 to 150 μM (moderately active))
Cc1ccc(-c2cc(-c3ccccc3)nc(SC(C)C(=O)Nc3ccc(C)c(C)c3)c2C#N)cc1 (stereo not drawn) [Compound H38]	180	+ (+, IC50 >150 μM (inactive))

From paper PMC9181126, “Design, Synthesis, Molecular Docking Analysis and Biological Evaluations of 4-[(Quinolin-4-yl)amino]benzamide Derivatives as Novel Anti-Influenza Virus Agents” (International Journal of Molecular Sciences, 2022)
